Experimental data as given in ChEMBL document CHEMBL1201862, “PubChem BioAssay data set” (2004).
The source made the active and inactive calls. For most assays here, no stated cut-off is given here; in the data, actives have a measured EC50 and inactives only a lower limit.

What was measured:
[1] = target: T1, Short transient receptor potential channel 4 (Mus musculus, UniProt Q9QUQ5); experiment: calcium entry via TRPC4 opening agents – cell-based, HEK293 TRPC4/mu-opioid, Fluo-4 calcium, dose response (AID 434937); type: functional
T1 sequence (Q9QUQ5 whole entry): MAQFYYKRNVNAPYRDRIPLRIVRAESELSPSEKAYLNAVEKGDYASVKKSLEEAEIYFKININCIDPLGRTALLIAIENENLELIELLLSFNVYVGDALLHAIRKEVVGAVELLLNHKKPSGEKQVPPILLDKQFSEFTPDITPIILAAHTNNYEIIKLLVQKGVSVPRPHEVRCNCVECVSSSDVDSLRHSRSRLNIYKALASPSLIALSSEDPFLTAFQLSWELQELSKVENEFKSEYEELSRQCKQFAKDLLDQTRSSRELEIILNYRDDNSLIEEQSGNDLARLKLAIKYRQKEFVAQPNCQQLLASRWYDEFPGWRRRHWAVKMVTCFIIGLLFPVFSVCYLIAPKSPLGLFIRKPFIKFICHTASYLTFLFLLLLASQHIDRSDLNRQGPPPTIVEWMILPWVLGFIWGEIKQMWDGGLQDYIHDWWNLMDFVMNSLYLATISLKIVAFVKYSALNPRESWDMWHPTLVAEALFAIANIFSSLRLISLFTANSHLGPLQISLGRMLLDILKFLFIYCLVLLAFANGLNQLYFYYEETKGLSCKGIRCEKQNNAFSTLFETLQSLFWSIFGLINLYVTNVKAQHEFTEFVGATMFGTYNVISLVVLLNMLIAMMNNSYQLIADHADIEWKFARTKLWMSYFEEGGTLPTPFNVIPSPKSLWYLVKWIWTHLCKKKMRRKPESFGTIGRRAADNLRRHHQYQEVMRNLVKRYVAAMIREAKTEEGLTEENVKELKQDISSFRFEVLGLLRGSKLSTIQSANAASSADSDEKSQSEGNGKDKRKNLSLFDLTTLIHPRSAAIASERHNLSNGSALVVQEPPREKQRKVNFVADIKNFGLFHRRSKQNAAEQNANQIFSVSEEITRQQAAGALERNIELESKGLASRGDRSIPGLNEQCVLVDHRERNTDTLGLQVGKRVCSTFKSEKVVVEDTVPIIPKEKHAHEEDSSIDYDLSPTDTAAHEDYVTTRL

Genome polyprotein = Genome polyprotein (dengue virus type 2, UniProt P29990); experiment: flavivirus cap methylation enzyme inhibition – biochemical, confirmation dose response, primary screen (AID 588689); type: functional
Sequence of Genome polyprotein (P29990 2492-3391 limits assumed): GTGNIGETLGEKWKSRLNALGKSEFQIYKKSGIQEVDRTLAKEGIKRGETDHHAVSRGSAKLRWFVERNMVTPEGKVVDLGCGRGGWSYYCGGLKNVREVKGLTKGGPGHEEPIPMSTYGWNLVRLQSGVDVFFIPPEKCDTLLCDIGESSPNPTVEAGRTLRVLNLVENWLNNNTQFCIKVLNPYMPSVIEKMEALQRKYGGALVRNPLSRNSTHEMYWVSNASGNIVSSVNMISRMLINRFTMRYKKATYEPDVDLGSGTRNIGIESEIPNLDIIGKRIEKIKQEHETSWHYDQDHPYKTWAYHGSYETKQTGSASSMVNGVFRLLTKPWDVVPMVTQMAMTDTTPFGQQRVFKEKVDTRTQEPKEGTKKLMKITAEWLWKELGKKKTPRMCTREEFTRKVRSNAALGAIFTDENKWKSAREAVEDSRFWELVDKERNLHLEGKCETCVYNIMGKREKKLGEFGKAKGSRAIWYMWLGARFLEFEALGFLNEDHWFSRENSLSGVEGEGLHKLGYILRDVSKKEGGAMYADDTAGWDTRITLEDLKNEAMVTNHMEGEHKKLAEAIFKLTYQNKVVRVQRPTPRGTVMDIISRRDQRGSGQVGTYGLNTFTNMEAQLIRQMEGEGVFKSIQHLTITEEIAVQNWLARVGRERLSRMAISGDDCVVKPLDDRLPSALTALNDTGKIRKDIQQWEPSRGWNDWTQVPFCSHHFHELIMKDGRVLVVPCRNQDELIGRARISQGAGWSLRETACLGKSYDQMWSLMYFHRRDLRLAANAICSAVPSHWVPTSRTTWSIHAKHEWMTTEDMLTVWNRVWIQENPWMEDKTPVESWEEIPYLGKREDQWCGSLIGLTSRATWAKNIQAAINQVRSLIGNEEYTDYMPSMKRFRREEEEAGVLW

cells [2] = type: functional, cell-based
cells [3] = type: functional, cell-based; remark: listed apart in the source
[4] = HIV-1 Vif–A3G interaction blockers – biochemical, TR-FRET, GST-Vif 1-94, biotin-A3G peptide, dose response retest, primary screen (AID 1117319); type: functional;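 further: TR-FRET signal of purified GST-Vif binding a biotinylated A3G peptide; inhibitors lower the FRET signal by blocking Vif and A3G binding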
Nonstructural protein 1 = Nonstructural protein 1 (Influenza A virus, UniProt Q194T2); type: functional, Influenza A virus (A/California/07/2009(H1N1))
Sequence of Nonstructural protein 1 (Q194T2 whole entry): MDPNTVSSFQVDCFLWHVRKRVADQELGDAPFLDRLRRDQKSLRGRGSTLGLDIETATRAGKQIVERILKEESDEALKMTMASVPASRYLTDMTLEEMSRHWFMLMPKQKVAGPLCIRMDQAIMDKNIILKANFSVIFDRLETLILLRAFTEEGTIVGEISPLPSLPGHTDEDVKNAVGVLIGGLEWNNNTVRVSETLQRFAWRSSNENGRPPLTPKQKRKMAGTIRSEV

[5] = target: Heat shock protein HSP 90-alpha (Homo sapiens, UniProt P07900); type: functional, organism-based
[6] = Luminescence Cell-Based Dose Response to Identify Activators of 5'UTR Stem-Loop Driven Prion Protein mRNA Translation in H4-C Neuroglioblastoma Cells. [Related pubchem assays: 1829 (Project Summary), 1814 (Primary HTS)]; type: functional
[7] = Luminescence Cell-Based Dose Response HTS to Identify Activators of Luciferase Translation or Activity in H4 […] Cells. [Related pubchem assays: 1829 (Project Summary), 1814 (Primary HTS)]; type: functional
[8] = Luminescence Cell-Based Dose Response to Identify Activators of Luciferase Translation or Activity in H4-C Neuroglioblastoma Cells. [Related pubchem assays: 1829 (Project Summary), 1814 (Primary HTS)]; type: functional
[9] = Luminescence Cell-Based Dose Confirmation to Identify Activators of 5'UTR Stem-Loop Driven Alpha-Synuclein mRNA Translation in H4 Neuroglioblastoma Cells. [Related pubchem assays: 1829 (Project Summary), 1814 (Primary HTS)]; type: functional
H4 = experiment: Luminescence Cell-Based Dose Response HTS to Identify Activators of 5'UTR Stem-Loop Driven Prion Protein mRNA Translation in H4 Neuroglioblastoma Cells. [Related pubchem assays: 1829 (Project Summary), 1814 (Primary HTS)]; type: functional; conditions: Homo sapiens
HEK293 [10] = experiment: inhibition of NOD1-driven NF-kB reporter – cell-based, luminescence, uHTS, primary screen (AID 1578); type: functional; conditions: Homo sapiens
[11] = target: T2, RNA-binding protein pos-1 (Caenorhabditis elegans, UniProt G5EF15); experiment: disruptors of C. elegans POS-1 RNA interaction – biochemical, fluorescence polarization, dose response (AID 1964);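 further: purified POS-1 fused to maltose binding protein made in E. coli; potency of compounds blocking POS-1 binding to fluorescent RNA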
T2 sequence (G5EF15 whole entry): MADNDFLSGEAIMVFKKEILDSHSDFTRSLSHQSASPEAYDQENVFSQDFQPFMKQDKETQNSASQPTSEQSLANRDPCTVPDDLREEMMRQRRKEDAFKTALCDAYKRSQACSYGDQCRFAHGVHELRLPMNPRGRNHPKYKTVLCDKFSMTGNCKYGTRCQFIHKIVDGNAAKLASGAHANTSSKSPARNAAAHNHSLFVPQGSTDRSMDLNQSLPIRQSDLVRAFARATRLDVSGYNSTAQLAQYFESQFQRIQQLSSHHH

HEK293 [12] = experiment: cells; type: functional, cell-based; conditions: Homo sapiens
[13] = target: T3, Zinc finger protein mex-5 (Caenorhabditis elegans, UniProt Q9XUB2); experiment: potency of MEX-5 RNA-binding blockers – biochemical, C. elegans, fluorescence polarization, dose response (AID 1960)
T3 sequence (Q9XUB2 whole entry): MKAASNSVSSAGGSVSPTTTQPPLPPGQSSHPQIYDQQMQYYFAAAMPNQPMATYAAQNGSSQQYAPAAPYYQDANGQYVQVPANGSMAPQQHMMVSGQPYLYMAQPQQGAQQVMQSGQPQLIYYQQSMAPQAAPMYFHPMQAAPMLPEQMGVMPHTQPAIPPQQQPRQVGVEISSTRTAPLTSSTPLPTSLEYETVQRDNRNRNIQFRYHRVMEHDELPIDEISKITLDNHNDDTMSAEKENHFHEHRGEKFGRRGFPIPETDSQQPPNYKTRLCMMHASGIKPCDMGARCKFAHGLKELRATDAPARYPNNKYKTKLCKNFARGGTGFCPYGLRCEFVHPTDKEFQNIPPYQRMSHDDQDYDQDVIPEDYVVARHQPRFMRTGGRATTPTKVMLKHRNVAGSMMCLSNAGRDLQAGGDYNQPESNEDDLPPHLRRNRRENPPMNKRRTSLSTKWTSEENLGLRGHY

HEK293 [14] = experiment: cells; type: functional, cell-based; conditions: Homo sapiens; remark: listed apart in the source
HEK293 [15] = experiment: NOD2 signaling inhibitors in MDP-stimulated cells, cell-based, uHTS, luminescence (AID 2001); type: functional; conditions: Homo sapiens
[16] = target: T4, Corticotropin-releasing factor receptor 2/Corticotropin-releasing factor-binding protein (Homo sapiens, UniProt P24387+Q13324); experiment: Dose Response confirmation of uHTS hits for small molecule antagonists of the CRF-binding protein and CRF-R2 receptor complex.; type: functional; conditions: read-out: IC50_Mean
T4 sequence (Q13324 whole entry): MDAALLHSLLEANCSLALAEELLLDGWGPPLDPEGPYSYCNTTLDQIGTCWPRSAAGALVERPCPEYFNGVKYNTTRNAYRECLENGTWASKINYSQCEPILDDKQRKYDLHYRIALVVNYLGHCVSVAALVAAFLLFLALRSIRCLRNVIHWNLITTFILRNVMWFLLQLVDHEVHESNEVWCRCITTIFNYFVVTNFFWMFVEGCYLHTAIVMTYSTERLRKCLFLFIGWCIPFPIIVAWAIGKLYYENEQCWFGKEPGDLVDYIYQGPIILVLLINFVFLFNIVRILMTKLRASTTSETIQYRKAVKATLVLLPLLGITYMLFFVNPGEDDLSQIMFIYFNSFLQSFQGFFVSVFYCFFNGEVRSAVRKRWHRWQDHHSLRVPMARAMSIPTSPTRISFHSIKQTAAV
T4 sequence (P24387 whole entry): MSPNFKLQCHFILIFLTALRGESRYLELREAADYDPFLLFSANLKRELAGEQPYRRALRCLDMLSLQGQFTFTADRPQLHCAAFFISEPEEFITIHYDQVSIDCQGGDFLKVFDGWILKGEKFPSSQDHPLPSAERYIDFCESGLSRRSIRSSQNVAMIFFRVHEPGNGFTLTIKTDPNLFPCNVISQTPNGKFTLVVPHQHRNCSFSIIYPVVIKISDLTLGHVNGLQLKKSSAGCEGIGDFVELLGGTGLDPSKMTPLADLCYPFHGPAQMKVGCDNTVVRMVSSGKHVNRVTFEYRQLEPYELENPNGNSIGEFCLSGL

[17] = target: T4, Corticotropin-releasing factor receptor 2/Corticotropin-releasing factor-binding protein; experiment: activators of CRF receptor 2 with binding protein – uHTS hits, confirmation (AID 602473); type: functional; conditions: read-out: EC50_Mean
[18] = blockers of CRF-binding protein–CRF-R2 complex – cell-based, uHTS hits, 384-well, dose response (AID 651639); type: functional, Homo sapiens; conditions: read-out: IC50_Mean

In the case of `COc1ccc(CNCCc2c[nH]c3ccccc23)cc1OC`, the EC50 [1] is reported as 5.96 µM (active).

In the case of `C#CCOc1ccc(/C=C2/C(=O)N(c3ccc(S(N)(=O)=O)cc3)N=C2C)cc1OC`, the IC50 (Genome polyprotein) is reported as > 100 µM (active).

With `Cc1nc2nc(-c3ccco3)nn2c(C)c1Cl` the EC50 (cells [2]) was > 350 µM (not active), the EC50 (cells [3]) was > 350 µM (not active) and the IC50 [4] was > 100 µM (active).

For `CC(=NNC(=S)N(Cc1ccccn1)Cc1ccccn1)c1cnccn1`, the IC50 (Nonstructural protein 1) was 1.18 µM (active) and the AC50 [5] was 3.3 µM (active).

With `COC(=O)c1ccccc1NC(=O)c1cccc(COc2ccccc2Cl)c1` the EC50 [6] was 0.809 µM (active), the EC50 [7] was < 0.1 µM (active) and the EC50 [8] was 0.295 µM (active). For the same compound, the EC50 [9] was 0.299 µM (active).

For `CCCn1nc(Oc2nc(SC)nc(N(C)C)n2)ccc1=O`, the IC50 [4] was > 100 µM (active).

With `N=C(N)NN=C1CCCCCCCCCCC1` the EC50 [1] was 7.5 µM (active).

With `Oc1c(C(c2ccccc2)N2CCOCC2)ccc2ccccc12` (centres undefined) the AC50 [5] was 7.26 µM (active).

With `COC(=O)CSc1nc(-c2cccs2)ccc1C#N` the EC50 [6] was 0.307 µM (active), the EC50 [7] was < 0.1 µM (active) and the EC50 (H4) was 0.261 µM (active). For the same compound, the EC50 [8] was 0.179 µM (active) and the EC50 [9] was 0.219 µM (active).

For `Cc1cccc2cc3c(N)c(C(=O)Nc4ccc(N5CCOCC5)cc4)sc3nc12`, the EC50 (HEK293 [10]) was 18.7 µM (active), the EC50 [11] was > 300 µM (not active) and the IC50 (HEK293 [12]) was 5.5 µM (active). For the same compound, the EC50 [13] was > 300 µM (not active), the IC50 (HEK293 [14]) was > 20 µM (inactive) and the IC50 (HEK293 [15]) was 7.54 µM (inactive).

For `COc1ccc(NC(=O)CN2CCC(C(N)=O)CC2)cc1`, the IC50 [4] was > 100 µM (active).

In the case of `Cc1cccc(CSc2nc3c(c(=O)n2C)SCC3)c1`, the IC50 [16] is reported as < 0.368 µM (active), the EC50 [17] is reported as > 53 µM (inactive) and the IC50 [18] is reported as > 20 µM (inactive).
